Data on one compound can be found in patent publication EP2954896A1, “Small molecule inhibitors of the E3 Ligase Skp2 in depression and other diseases” (Max-Planck-Gesellschaft zur Förderung der Wissenschaften …, priority 2014, dated 2015).

The nature of series [1]: Chronic PAR treatment after chronic social defeat stress: physiological and neuroendocrine parameters. In kind it is in vivo, mice. From the text: Initially, wild-type and 51 KOmice were split into 2 x 2 groups (control WT, control FKBP51^-/-, defeat WT, defeat FKBP51^-/-) and subjected to the chronic stress procedure described below. After cessation of the stressor, groups were subdivided into vehicle-treated and paroxetine-treated animals, resulting in 8 groups (n = 7-13 per group). The treatment phase lasted for three weeks. The behavioral tests took place during the last week of the paroxetine treatment.
The CSDS paradigm lasted for 21 days. Briefly, the experimental mice were introduced into the home cage (45 cm x 25 cm) of a dominant resident mouse and defeated shortly after. When the defeat was achieved, the animals were separated by a wire mesh, preventing physical but allowing sensory contact for 24 h. Each day, stressed animals were defeated by another unfamiliar, dominant resident mouse in order to exclude a repeated encounter throughout the experiment. The daily defeat was performed between 11:00 and 16:00 h; varying starting times reduced the predictability of the stressor and therefore minimized a potential habituation effect. […] Both stress and control animals were handled daily during the stress procedure; body weight for all mice was assessed at the beginning of the experiment, after the cessation of the stress period, and on the day of killing. […]

Series [2] has as its system autophagy pathway markers. The series is described as follows: Chronic PAR treatment after chronic social defeat stress: autophagy pathway marker protein levels. In kind it is in vivo, mice. The settings on record: effect of deletion of FKBP51. As to the method:
Western blot analysis was performed on eluates from ColPs or with protein extracts from cells or tissue. Protein extracts were obtained by lysing cells or tissue (prelysed as described in the paragraph before) in 62.5 mM Tris, 2% SDS and 10% sucrose, supplemented with protease (Sigma, P2714) and phosphatase (Roche, 04906837001) inhibitor cocktail. Samples were sonicated and heated at 95 °C for 5 min. Proteins were separated by SDS-PAGE and electro-transferred onto nitrocellulose membranes. Blots were placed in Tris-buffered saline, supplemented with 0.05% Tween (Sigma, P2287) and 5% non-fat milk for 1 h at room temperature and then incubated with primary antibody (diluted in TBS/0.05% Tween) overnight at 4 °C. […]

Series [3] is described as follows: Forced swim test after acute antidepressant injection in Fkbp51+/+ and Fkbp51-/- mice. The class given is in vivo. The settings on record: acute injection 10 mgkg-1. The method, then: The Fkbp51^-/- mouse line was previously generated (Touma C et al. (2011) Biol. Psychiatry 70: 928-936) and fully backcrossed to C57/BI6. […] Hippocampus and prefrontal cortex were extracted. […] Male mice (age 10-16 weeks) were injected intraperitoneally with a single dose of either AMI (10 mg kg^-1) or saline vehicle. […] Another subgroup (WT n=5, KO n=5) was sacrificed, and brain tissue and blood was sampled for analysis of drug concentrations. […] The inventors performed an additional forced swim test administering the antidepressant amitriptyline in FKBP51 WT and FKBP51 KO mice (Fig. 1 B).

Another series deals with autophagy markers. The series is described as follows: Autophagy markers in protein extracts of hippocampus and prefrontal cortex after acute antidepressant injection. In kind it is in vivo, mice. The settings on record: 10 mgkg-1. As to the method: Western blot analysis was performed on eluates from ColPs or with protein extracts from cells or tissue. Protein extracts were obtained by lysing cells or tissue (prelysed as described in the paragraph before) in 62.5 mM Tris, 2% SDS and 10% sucrose, supplemented with protease (Sigma, P2714) and phosphatase (Roche, 04906837001) inhibitor cocktail. Samples were sonicated and heated at 95 °C for 5 min. Proteins were separated by SDS-PAGE and electro-transferred onto nitrocellulose membranes. Blots were placed in Tris-buffered saline, supplemented with 0.05% Tween (Sigma, P2287) and 5% non-fat milk for 1 h at room temperature and then incubated with primary antibody (diluted in TBS/0.05% Tween) overnight at 4 °C. The following primary antibodies were used: Beclin1 (1:1000, Cell Signaling, #3495), Atg12 (1:1000, Cell Signaling #2010), LC3B-I/II (1:1000, Cell Signaling, #2775), FLAG (1:7000, Rockland, 600-401-383), FKBP51 (1:1000, Bethyl, A301-430A), Akt (1:1000, Cell Signaling, #4691), pAkt (1:1000, Ser473, T308, 1:1000, Cell Signaling, #4058, #9275), Actin (1:5000, Santa Cruz Biotechnologies, sc-1616), Skp2, myc (Addgene, 19947), GFP (santa cruz biotechnologies, sc-8334), p27 (cell signaling technologies, 3686), pULK,(S757, cell signaling technologies, 6888) APP-CTF (sigma-aldrich, A8717), DNMT1 (1:1000, Imgenex, IMG-261A), phospho-DNMT1 (S154), (1:1000, Abnova, PAB4924), ptau (S622; Santa Cruz Biotechnologies, #sc-16938).
Subsequently, blots were washed and probed with the respective horseradish peroxidase- or fluorophore-conjugated secondary antibody for 1 h at room temperature. The immuno-reactive bands were visualized either using ECL detection reagent (Millipore, Billerica, MA, USA, WBKL0500) or directly by excitation of the respective fluorophore. Determination of the band intensities were performed with BioRad, ChemiDoc MP, or X-ray-films.
The Fkbp51^-/- mouse line was previously generated (Touma C et al. (2011) Biol. Psychiatry 70: 928-936) and fully backcrossed to C57/BI6. […] Hippocampus and prefrontal cortex were extracted.

The mark [4] stands for this setting: Fkbp51+/+ mice, hippocampus and prefrontal cortex.

Consider `Fc1ccc([C@@H]2CCNC[C@H]2COc2ccc3c(c2)OCO3)cc1` [PAR, paroxetine], for which the “paroxetine-induced body weight increase” value in series [1] (51 KO versus wild-type mice) is “significantly less affected”. Besides, the “paroxetine-induced body weight increase” value in series [1] (basal conditions versus stressed animals) was “significantly enhanced in mice under basal conditions compared to stressed animals”. Further, in series [2], the “effects on autophagy pathway markers Beclin1, Atg12, pAktS473/Akt and LC3BII/I” value is given as “abolished”. Moreover, in series [3] (Fkbp51+/+ mice), the “time spent struggling, forced swim test” value was “increase in the time spent struggling”. Besides, the “time floating (immobility), forced swim test” value in series [3] (Fkbp51+/+ mice, versus vehicle) is recorded as “less time floating”. Further, in series [3] (Fkbp51-/- mice), the “effect on time floating (immobility), forced swim test” value is listed as “significantly less pronounced” and the “effect on time spent struggling, forced swim test” value is given as “significantly attenuated”. In the series with autophagy markers (setting [4]), the “level of Atg12” value is listed as “increased”, the “level of Beclin1” value is “increased”, the “level of Vps34” value is “increased” and the “phosphorylation of the kinase Akt (pAktS473)” value was “evoked dephosphorylation”. Further, in the series with autophagy markers (Fkbp51-/- mice, either brain region), the “protein levels of autophagy markers and pAktS473” value is on record as “no alterations”.
